Experimental findings from patent US4868195A, “Novel enolamides, pharmaceutical compositions and methods of use thereof for activity as modulators of the arachidonic acid cascade” (Warner-Lambert Company, priority 1988, dated 1989) are described below.

Values joined by “and” are separate entries in the source; they are usually repeats but may differ in a detail not shown here. Equal entries are not always repeated.

The test concerns the target T1, leukotriene receptor (guinea pig lung membranes) (Cavia porcellus, UniProt Q2NNR5).
T1 construct: 20 mg original tissue wet weight of guinea pig lung; tissue Kuiper Rabbit Farm, Gary, IN (animals); host or cells: guinea pig lung, crude membranes
T1 sequence (Q2NNR5 1-340): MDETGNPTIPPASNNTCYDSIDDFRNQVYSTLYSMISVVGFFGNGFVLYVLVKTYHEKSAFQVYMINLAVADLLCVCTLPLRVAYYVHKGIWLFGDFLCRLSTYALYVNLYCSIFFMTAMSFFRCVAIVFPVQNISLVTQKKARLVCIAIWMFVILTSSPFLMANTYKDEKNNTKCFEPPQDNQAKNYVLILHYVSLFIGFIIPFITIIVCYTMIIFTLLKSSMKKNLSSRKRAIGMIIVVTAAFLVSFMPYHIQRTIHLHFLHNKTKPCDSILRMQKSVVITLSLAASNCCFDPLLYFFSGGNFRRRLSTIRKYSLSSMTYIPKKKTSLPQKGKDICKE
As to the kind of experiment: Binding of ^3 H-Leukotriene D4 to Guinea Pig Lung Membranes (RBL). The note with it: 0.2 nM ^3 H-LTD4, 60 min, 25° C.; read-out: Concentration (M) for 50.0 % Inhibition, IC (RBL). As to the method: Additionally, the activity, of the compounds having the Formula I of the present invention is determined by the well known leukotriene receptor binding assay that is described by R. F. Bruns, W. J. Thomsen and T. A. Pugsley in Life Sciences, 33, 645 (1983) or the Herxheimer in vivo antiallergy test described in H. Herxheimer, J. Physiol. (London), Vol. 177, p. 251 (1952).
Binding of ^3 H-Leukotriene D4 to Guinea Pig Lung Membranes (RBL)
[14,15-^3 H]leukotriene D4 (^3 H-LTD4) (25 Ci/mmol and 40 Ci/mmol) is purchased from New England Nuclear. Unlabeled LTC4 is a gift of Ono Pharmaceuticals (Japan). LTC4, LTD4, and LTE4 are purchased as methyl esters from Paesel GmbH (Frankfurt, W. Germany). Concentrations of the Paesel leukotrienes are calculated from their absorbance at 280 nm. Leukotriene esters are saponified overnight under N2 in 3.3% potassium carbonate at room temperature. Tritiated leukotrienes are stored as received from New England Nuclear at -20° C. Ono LTC4 (5 μg/ml) is stored at -60° C. in phosphate buffer pH 6.8. Saponified Paesel leukotrienes are stored at -60° C. in 3.3% potassium carbonate (pH 9.0-9.5). Aliquots of leukotrienes are taken from stock solutions immediately after thawing, after which the stock solutions are immediately refrozen. 2-Amino-2-(hydroxymethyl)-1,3-propanediol (Tris) is Sigma pH 7.7 pre-set crystals, and dimethylsulfoxide is Aldrich Gold Label.
Preparation of crude lung membranes
Two pairs of lungs (1.3 g) from freshly sacrificed 300 g male guinea pigs (older animals gave substantially lower binding) from Kuiper Rabbit Farm, Gary, IN are disrupted with a Polytron PT 10 (setting 4) for 30 seconds in 20 ml ice-cold 50 mM Tris adjusted with HCl to pH 7.7 at 25° C. (Tris buffer), filtered through a single layer of gauze to remove connective tissue, and centrifuged at 50,000 xg for ten min. The pellet is resuspended by homogenization with a Polytron in 20 ml Tris buffer, centrifuged at 50,000 xg for ten min., resuspended, incubated at 37° C. for 30 minutes, and centrifuged again. The final pellet is resuspended in Tris buffer and either used fresh or stored at -70° C.
All incubations are in triplicate for 60 minutes at 25° C. in 12×75 mm polystyrene tubes containing 1 ml Tris buffer with 20 mg original tissue wet weight of guinea pig lung nmembranes, 0.2 nM ^3 H-LTD4 (6,000-11,000 cpm), 10 mM MgCl2, and 1% dimethylsulfoxide Leukotrienes are diluted in Tris buffer. All other test compounds dissolved at 10 mM in dimethylsulfoxide on the same day as the experiment, and diluted in dimethylsulfoxide to 100× the final incubation concentration. Control incubations receive an equal volume (10 μl) of dimethylsulfoxide; the resulting concentration of dimethylsulfoxide had no effect on binding. ^3 H-LTD4 is diluted to 2 nM in Tris buffer. The membrane suspension (20 mg/0.89 ml) contains sufficient MgCl2 to give 10 mM final concentration in the incubation. […] All additions are performed at 0° C. Immediately after the last addition, the incubation is initiated by agitating the rack of tubes on a vortex mixer and warming to 25° C. in a water bath. Tubes are vortexed at least once more during the incubation to ensure that the membranes remained suspended. Incubations are terminated after 60 minutes by filtering under reduced pressure through 25 mm Whatman GF/B filters followed by rapid washing three times with 4 ml of ice-cold Tris buffer. Filters are added to scintillation vials with 8 ml Formula 947 (New England Nuclear), left overnight, shaken, and the radioactivity counted in a scintillation counter (efficiency 40%). Nonspecific binding, defined as binding of ^3 H-LTD4 in the presence of 100 nM LTC4, is 300-500 cpm for all lots of ^3 H-LTD4. Binding to the filters in the absence of tissue is about 100 cpm, and is not affected by unlabeled LTC4. Specific binding, defined as total binding minus nonspecific binding, varied considerably from lot to lot of ^3 H-LTD4. […]
Take `O=C(Nc1ccc(CCc2cc(C(F)(F)F)cc(C(F)(F)F)c2)cc1)C1=C(O)c2ccccc2S(=O)(=O)C1` [Example 63, N-[4-[2-[3,5-bis-Trifluoromethyl(phenyl)]ethyl]phenyl]-4-hydroxy-2H-1-benzothiopyran-3-carboxamide, 1,1-dioxide]: the IC50 is 4.42e-06 M and 3.11e-06 M.

On to `COc1cc(CCc2ccc(NC(=O)C3=C(O)c4ccccc4S(=O)(=O)C3)cc2)cc(OC)c1` [Example 34, N-[4-[2-(3,5-Dimethoxyphenyl)ethyl]phenyl]-4-hydroxy-2H-1-benzothiopyran-3-carboxamide, 1,1-dioxide], for which the IC50 is 1.58e-05 M.

On to `O=C(Nc1ccc(CCc2cccc(C(F)(F)F)c2)cc1)C1=C(O)c2ccccc2S(=O)(=O)C1` [Example 62, N-[4-[2-(3-Trifluoromethylphenyl)ethyl]phenyl]-4-hydroxy-2H-1-benzothiopyran-3-carboxamide, 1,1-dioxide], for which the IC50 was 1e-05 M and 5.95e-06 M and 4.98e-06 M.

As to `Nc1ccc(C=Cc2ccc(NC(=O)C3CS(=O)(=O)c4ccccc4C3=O)cc2)cc1` (centres unmarked) [Example 66, 2H-1-Benzothiopyran-3-carboxamide, N-[4-[2-(4-aminophenyl)ethenyl]phenyl]-3,4-dihydro-4-oxo-, 1,1-dioxide], the IC50 amounted to 3.15e-05 M.

Turning to `O=C(Nc1ccc(CCc2ccc(O)cc2O)cc1)C1=C(O)c2ccccc2S(=O)(=O)C1` [Example 31, N-[4-[2-(2,4-Dihydroxyphenyl)ethyl]phenyl]-4-hydroxy-2H-1-benzothiopyran-3-carboxamide, 1,1-dioxide], the IC50 was determined as 5.2e-05 M.

`O=C(Nc1ccc(CCc2cccc(O)c2O)cc1)C1CS(=O)(=O)c2ccccc2C1=O` (centres unmarked) [Example 29, N-[4-[2-(2,3-Dihydroxyphenyl)ethyl]phenyl]-3,4-dihydro-4-oxo-2H-1-benzothiopyran-3-carboxamide, 1,1-dioxide]: the IC50 came to 3.92e-05 M.

For `O=C(Nc1ccc(CCc2cccc(Cl)c2)cc1)C1=C(O)c2ccccc2S(=O)(=O)C1` [Example 68, 2H-1-Benzothiopyran-3-carboxamide, N-[4-[2-(3-chlorophenyl)ethyl]phenyl]-4-hydroxy-, 1,1-dioxide], the IC50 came out at 4.99e-06 M.

Take `O=C(Nc1ccc(CCc2cc(C(F)(F)F)cc(C(F)(F)F)c2)cc1)c1sc2ccccc2c1O` [Example 148, Benzo[b]thiophene-2-carboxamide, N-[4-[2-[3,5-bis(trifluoromethyl)phenyl]ethyl]phenyl]-3-hydroxy]: the IC50 came to 0.0001 M.

As for `COc1cc(CCc2ccc(NC(=O)C3=C(O)c4ccccc4S(=O)(=O)C3)cc2)cc(OC)c1OC` [Example 35], the IC50 was 4.23e-05 M.

As for `O=C(Nc1ccc(CCc2ccc(Cl)c(Cl)c2)cc1)c1sc2ccccc2c1O` [Example 144], the IC50 is 5e-06 M and 6.43e-06 M and 3.28e-06 M.

Regarding `COc1cccc(CCc2ccc(NC(=O)C3=C(O)c4ccccc4S(=O)(=O)C3)cc2)c1OC` [Example 28, N-[4-[2-(2,3-Dimethoxyphenyl)ethyl]phenyl]-4-hydroxy-2H-1-benzothiopyran-3-carboxamide, 1,1-dioxide], the IC50 is 5e-05 M and 3.56e-05 M.

In the case of `COc1ccc(CCc2ccc(NC(=O)C3=C(O)c4ccccc4S(=O)(=O)C3)cc2)c(OC)c1` [Example 30, N-[4-[2-(2,4-Dimethoxyphenyl)ethyl]phenyl]-4-hydroxy-2H-1-benzothiopyran-3-carboxamide, 1,1-dioxide], the IC50 was 2.26e-05 M.

Consider `COc1ccc(OC)c(CCc2ccc(NC(=O)C3=C(O)c4ccccc4S(=O)(=O)C3)cc2)c1` [Example 32, N-[4-[2-(2,5-Dimethoxyphenyl)ethyl]phenyl]-4-hydroxy-2H-1-benzothiopyran-3-carboxamide, 1,1-dioxide], for which the IC50 worked out at 2.35e-05 M.

Regarding `COc1ccc(CCc2ccc(NC(=O)C(=O)c3sc4ccccc4c3O)cc2)cc1OC` [Example 131, N-[4-[2-(3,4-Dimethoxyphenyl)ethyl]phenyl]-3-hydroxy-α-oxo-benzo[b]thiophene-2-acetamide], the IC50 was 4.4e-06 M.
